Test results from patent US12275725B2, “Inhibitors of the notch transcriptional activation complex and methods for use of the same” (University of Miami, priority 2019, dated 2025).
Values after ≈ are worked out from the molar mass of the structure shown.

What was measured:
[1] = target: T1, Notch transcriptional activation complex (NTC) (Homo sapiens, UniProt P46531+Q06330); test: Notch complex assembly assay (NTC AlphaScreen assay); assay type: binding
T1 construct: made in house; host or cells: SF21 insect cells (baculovirus)
Protocol: Notch Complex Assembly Assay
All recombinant proteins were expressed using baculovirus expression vectors in SF21 cells and purified. Unless otherwise stated, all assays contained 125 fmol of double stranded oligonucleotide, CSL, Notch1 and MAML1 proteins. Reactions were carried out in Tris-buffered saline with 0.1% Tween (“TBS-T”) buffer containing 0.2% bovine serum albumin (“BSA”) and 100 μg/mL salmon sperm DNA. Briefly, the Notch complex was assembled on a biotinylated double stranded (“DS”) oligonucleotide harboring one CSL binding site (5′-[…]-3′). Complex assembly was quantitated using ALPHASCREEN technology (Perkin Elmer). Proteins in the complexes were detected using specific antibodies to either MAML1 (Cell signaling, D3K7B), Notch1 (Abcam, 52627) or CSL (anti-His, Abcam 18184). Streptavidin conjugated […] beads (Perkin Elmer, 6760002) were used to bind the DS oligonucleotide, and Protein-A conjugated […] beads (Perkin Elmer, 6760137) were used to detect antibody-coated proteins. For screening compounds, Notch transcriptional activation complex (“NTC”) components were added to wells that already contained the inhibitor to be assayed and allowed to incubate for 30 minutes. The ALPHASCREEN plate (Perkin Elmer, 6008350) was then read on an Envision Plate reader (Perkin Elmer) as specified by the manufacturer.

[2] = tested on: esophageal adenocarcinoma patient-derived xenograft (EAC47 PDX tumor); test: Esophageal adenocarcinoma patient-derived xenograft (PDX) model; assay type: in vivo; settings: NSG mice, 25 days of treatment
Protocol: Mouse Xenograft Studies Six-week-old NOD-SCID gamma (“NSG”) mice were purchased from Jackson Laboratories and CD-1 Nude mice were purchased from Charles River Laboratories. For the cell line based xenografts assay, 5×10^6 OE19 cells in 200 μl serum-free culture medium were injected subcutaneously per mouse. The mice in the treatment group were injected with 15 mg/kg NADi-351 daily, and the mice in the control group were injected with the same volume of vehicle (DMSO). Subcutaneous tumor growth was measured once every 4 days using calipers along with body weight. The experiment was discontinued on day 28. PDX cancer models were established, as described in Zhang et al, Establishment of Patient-Derived Xenograft (PDX) Models of Human Breast Cancer, Current Protocols in Mouse Biology, 3:21-29 (2013), in NSG mice. Briefly, 10 mm^3 pieces of primary EAC47 PDX tumor were transplanted subcutaneously into the flanks of NSG mice using a 13G telescopic needle. When the tumors reached 200 mm^3, the mice were split into two uniform groups for treatment. NADi-351 (20 mg/kg) and vehicle were administered daily by intraperitoneal (“IP”) injection for 24 days. Tumor growth was monitored every 4 days and tumor volume was measured by the formula: Volume=(S×S×L)/2, where S and L are the short and long dimensions. […]

T1 sequence (P46531 1754-2555 limits assumed): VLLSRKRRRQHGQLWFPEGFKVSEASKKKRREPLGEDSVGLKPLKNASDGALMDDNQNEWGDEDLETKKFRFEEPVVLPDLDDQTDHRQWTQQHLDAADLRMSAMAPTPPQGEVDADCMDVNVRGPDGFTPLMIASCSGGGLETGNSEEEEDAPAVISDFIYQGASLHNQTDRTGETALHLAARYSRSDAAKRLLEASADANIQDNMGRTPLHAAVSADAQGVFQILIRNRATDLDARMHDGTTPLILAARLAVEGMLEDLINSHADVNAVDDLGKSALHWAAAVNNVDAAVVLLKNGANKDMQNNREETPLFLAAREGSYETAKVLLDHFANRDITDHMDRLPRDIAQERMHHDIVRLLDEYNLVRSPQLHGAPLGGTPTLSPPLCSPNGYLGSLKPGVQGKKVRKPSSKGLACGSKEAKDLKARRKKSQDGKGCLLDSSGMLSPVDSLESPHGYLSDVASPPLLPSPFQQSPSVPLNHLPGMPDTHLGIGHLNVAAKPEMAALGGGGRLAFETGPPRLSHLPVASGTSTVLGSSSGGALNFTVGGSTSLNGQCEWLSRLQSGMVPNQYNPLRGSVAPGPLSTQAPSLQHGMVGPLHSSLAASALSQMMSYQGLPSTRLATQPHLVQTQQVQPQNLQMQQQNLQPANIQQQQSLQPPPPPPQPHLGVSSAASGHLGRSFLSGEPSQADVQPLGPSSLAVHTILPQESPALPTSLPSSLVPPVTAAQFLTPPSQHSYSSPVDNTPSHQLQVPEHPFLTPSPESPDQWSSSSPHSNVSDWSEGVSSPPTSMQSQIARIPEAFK
T1 sequence (Q06330 whole entry): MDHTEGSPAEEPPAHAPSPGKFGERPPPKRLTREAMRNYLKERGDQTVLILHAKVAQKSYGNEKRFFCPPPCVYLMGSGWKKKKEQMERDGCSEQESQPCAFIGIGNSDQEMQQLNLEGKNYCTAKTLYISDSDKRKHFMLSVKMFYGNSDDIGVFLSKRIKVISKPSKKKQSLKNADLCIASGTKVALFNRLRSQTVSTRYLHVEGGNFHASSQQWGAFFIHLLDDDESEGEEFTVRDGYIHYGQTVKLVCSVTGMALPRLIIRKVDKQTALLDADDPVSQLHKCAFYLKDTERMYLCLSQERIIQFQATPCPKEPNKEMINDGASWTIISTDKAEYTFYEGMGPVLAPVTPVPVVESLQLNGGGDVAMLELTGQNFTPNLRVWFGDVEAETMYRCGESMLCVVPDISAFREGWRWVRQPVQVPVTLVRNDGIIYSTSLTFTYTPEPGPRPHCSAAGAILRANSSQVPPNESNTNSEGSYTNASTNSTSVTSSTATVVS

IC50 ([1]; Table E, NTC AlphaScreen assay, read-out: *IC50): 2.4 nM | increase in potency over NADi-260 ([1]; methylated at the alkene vs NADi-260): 10 fold | solubility (physchem; pH 1.2, simulated gastric fluid): 158 ± 7.7 µM (≈ 73.3 µg/mL) | solubility (physchem; pH 6.5, fassif): 150 ± 4.1 µM (≈ 69.9 µg/mL) | solubility (physchem; pH 7.4, aqueous buffer): 155 ± 9.6 µM (≈ 72 µg/mL)
Structure (SMILES): COc1cc(/C(C)=C2\SC(=S)N(CC(=O)N(C)C)C2=O)cc(F)c1OCc1nnc[nH]1 [NADi-351, (Z)-2-(5-(1-(4-((1H-1,2,4-triazol-3-yl)methoxy)-3-fluoro-5-methoxyphenyl)ethylidene)-4-oxo-2-thioxothiazolidin-3-yl)-N,N-dimethylacetamide]
body weight of the subjects [2]: remained constant | volume of the tumor ([2]; compared to control): significantly inhibited compared to control
